Results on one compound are retold here after US20250049791A1, “Synthesis of MEK7 Inhibitors and methods of Use Thereof” (Northwestern University, priority 2023, published 2025).

Series [1] concerns the target T1, recombinant active full-length human MEK7 (Homo sapiens, UniProt O14733).
T1 construct: recombinant active full-length human MEK7 (Carna Biosciences); purchased Carna Biosciences
T1 sequence (O14733 1-419): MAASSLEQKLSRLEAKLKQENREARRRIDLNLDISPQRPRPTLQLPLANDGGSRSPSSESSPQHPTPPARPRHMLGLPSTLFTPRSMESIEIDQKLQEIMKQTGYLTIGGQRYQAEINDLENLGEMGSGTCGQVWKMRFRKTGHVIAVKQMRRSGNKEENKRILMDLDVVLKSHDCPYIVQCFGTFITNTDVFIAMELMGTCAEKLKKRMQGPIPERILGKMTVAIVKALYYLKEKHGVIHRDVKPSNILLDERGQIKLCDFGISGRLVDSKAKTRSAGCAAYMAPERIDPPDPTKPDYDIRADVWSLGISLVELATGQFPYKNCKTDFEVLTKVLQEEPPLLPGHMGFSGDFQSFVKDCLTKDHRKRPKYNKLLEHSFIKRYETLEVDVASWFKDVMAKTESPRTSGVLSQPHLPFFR
The series is described as follows: ADP-Glo kinase activity assay, MEK7 with JNK1 substrate. Type of series: biochemical. The conditions noted are these: 30 min preincubation. The method, then:
Procedure for a 5 μL Kinase reaction using the ADP-Glo Kinase Assay Kit from Promega. Staurosporine was used as the positive control, and DMSO (vehicle) was employed as the negative control. Activity of recombinant active full-length human MEK7 (Carna Biosciences) was measured with recombinant full-length human substrate JNK1 (MAPK8). Using a Mantis, a mixture of MEK7 and JNK1 was dispensed into a 384-well low volume white Proxiplate. For each well, 4 ng of MEK7 and 600 ng of JNK1 in kinase buffer (CST) were used, accounting for 1 μL of this mixture per well. Inhibitor was prepared in a DMSO solution (40 mM). A dose-response dilution was performed in a 384-well Echo transfer plate. Using an Echo Access, 10 nL of each solution was dispensed into the same 384-well low volume white Proxiplate as above. This mixture was allowed to incubate for 30 minutes at room temperature. Using a Mantis, 1 uL of an 8 μM ATP solution was added to each well, and the plate was allowed to incubate for another 1 hour at room temperature. Using the Mantis again, 4 μL of ADP Glo Reagent was dispensed into each well, and the plate was allowed to incubate for 45 min at room temperature. Finally, 9 μL of Kinase Detection Reagent was added manually to each well, and the plate was allowed to incubate for 45 minutes at room temperature. Luminescence was read on a Synergy Neo2 Plate Reader with filter cubes 3 and 114. Integration time was set to 0.20 seconds, gain set to 160, and read height set at 6 mm. All experiments were performed in triplicate on the plate, and at least in one separate technical duplicate was performed.
MEK4 selectivity was performed in the same manner with activated MEK4 (Carna Biosciences). Here, p-38α was employed as the kinase substrate in lieu of JNK1 due to the availability of reagents. […] To probe the ATP-competitive nature of 25, this compound was subjected to a similar assay forgoing the 30 minute incubation time described above (STAR Protocols 2021, 2, 100717). The results are tabulated below in compound characterization. Potency determined by duplicate of triplicates corresponded to a IC50 value, which is in line with the ratio difference observed among other covalent inhibitors (for examples, see Cell Chem. Biol. 2020, 27, 1285).
A general note: ADP-Glo first removes unused ATP, then detects ADP through luciferase.

The target of series [2] is T2, MEK3 (Homo sapiens, UniProt P46734).
T2 sequence (P46734 1-347): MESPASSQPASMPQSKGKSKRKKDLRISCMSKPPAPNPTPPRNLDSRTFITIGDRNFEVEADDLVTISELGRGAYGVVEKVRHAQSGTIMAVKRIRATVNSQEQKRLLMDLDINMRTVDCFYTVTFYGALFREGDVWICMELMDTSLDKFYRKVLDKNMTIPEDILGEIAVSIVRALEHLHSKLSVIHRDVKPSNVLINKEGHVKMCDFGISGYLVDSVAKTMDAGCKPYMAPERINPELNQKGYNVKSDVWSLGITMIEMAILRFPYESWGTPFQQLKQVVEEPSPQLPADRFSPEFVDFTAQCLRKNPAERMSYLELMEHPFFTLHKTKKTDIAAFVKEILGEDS
The series is described as follows: Additional selectivity assay, MEK3 (FIG. 9). Type of series: binding.

Series [3] addresses T3, MEK5 (Homo sapiens, UniProt Q13163).
T3 sequence (Q13163 1-448): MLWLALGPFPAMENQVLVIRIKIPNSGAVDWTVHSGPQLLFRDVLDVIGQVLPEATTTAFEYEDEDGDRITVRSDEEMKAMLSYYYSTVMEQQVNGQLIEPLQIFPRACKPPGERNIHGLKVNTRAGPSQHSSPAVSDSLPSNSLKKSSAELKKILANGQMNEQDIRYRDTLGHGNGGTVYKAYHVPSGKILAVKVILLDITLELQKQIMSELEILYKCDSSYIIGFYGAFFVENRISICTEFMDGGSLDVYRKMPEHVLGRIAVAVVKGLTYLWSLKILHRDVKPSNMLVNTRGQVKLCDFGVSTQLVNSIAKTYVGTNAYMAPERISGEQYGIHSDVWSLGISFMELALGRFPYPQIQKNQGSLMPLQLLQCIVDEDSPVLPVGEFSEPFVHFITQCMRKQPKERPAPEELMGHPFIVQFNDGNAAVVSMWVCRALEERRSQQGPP
The series is described as follows: Additional selectivity assay, MEK5 (FIG. 9). The format is binding.

The target in series [4] is T4, MEK6 (Homo sapiens, UniProt P52564).
T4 sequence (P52564 1-334): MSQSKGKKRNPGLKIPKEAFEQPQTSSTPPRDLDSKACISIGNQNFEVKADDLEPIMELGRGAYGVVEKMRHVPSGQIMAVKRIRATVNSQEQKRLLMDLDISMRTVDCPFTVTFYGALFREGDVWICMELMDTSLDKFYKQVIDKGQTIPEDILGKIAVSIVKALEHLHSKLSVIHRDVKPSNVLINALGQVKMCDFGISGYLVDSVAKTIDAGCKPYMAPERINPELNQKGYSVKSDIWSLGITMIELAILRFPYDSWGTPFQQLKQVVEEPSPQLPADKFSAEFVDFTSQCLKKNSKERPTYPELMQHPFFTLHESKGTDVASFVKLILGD
The series is described as follows: Additional selectivity assay, MEK6 (FIG. 9). The format is binding.

Series [5] can be described thus: PAMPA permeability. Particulars: FIG. 12. Type of series: in vitro ADME. For orientation: PAMPA measures passive passage across an artificial lipid membrane.

SMILES strings stand for the structures. Read-outs that look alike come from different tables or passages of the source.

With `CNc1cc(Oc2cccc(NC(=O)CCl)c2)ncn1` [Compound 8, 2-chloro-N-(3-((6-(methylamino)pyrimidin-4-yl)oxy)phenyl)acetamide], the concentration for half-maximal inhibition (IC50) in series [1] (overall value of two experiments, read-out: MEK7 IC50) is 60 nM; in series [1] (read-out: MEK7 IC50), 60 nM; in series [1] (MEK7 IC50, first experiment (IC50±SEM, n=3), first value in brackets), 87 ± 41 nM; in series [1] (MEK7 IC50, second experiment (IC50±SEM, n=3), second value in brackets), 34 ± 42 nM. Besides, the “activity/binding at MEK3” value in series [2] is “inactive”. The “activity/binding at MEK5” value in series [3] was “inactive”. Also, in series [4], the “activity/binding at MEK6” value was “inactive”. Moreover, in series [5], the PAMPA cell permeability entry is reported as “highly membrane permeable”.

What is called IC50 is the concentration needed to halve the response being measured.
